Our source for the GI50 and TGI values is PubChem BioAssay (NCI).

Values joined by “and” are separate entries in the source; they are usually repeats but may differ in a detail not shown here. Identical values can stand only once.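 Step 1: Grow cells in 96-well plates. Step 2: Expose to compound for 48 hours at 5 concentrations. Step 3: Interpolate endpoints linearly; if unreached, use highest concentration. The concentration for 50% growth inhibition is given as GI50. At the TGI there is no net growth.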

For the first assay, the system named is HS 578T breast. The experiment in a line: NCI tumour cell line growth inhibition, 48 h.
Turning to `COc1cc([C@@H]2c3cc4c(cc3[C@@H](Nc3ccc(NC(=O)c5cc([N+](=O)[O-])cn5C)cc3)[C@H]3COC(=O)[C@H]23)OCO4)cc(OC)c1O`, the GI50 is 2.11 µM and 0.756 µM; the TGI is over 100 µM.

Another assay relates to HCT-116 colon. The experiment in a line: NCI tumour cell line growth inhibition, 48 h.
Take `COC1(OC)CCc2c(sc3ncnc(Nc4cccc(Br)c4)c23)C1`: the TGI was over 100 µM.

For the molecule `C=CCC(CCC(C)=O)(C(=O)OCC)C(=O)OCC`, the TGI is over 100 µM.

On to `CC(C)C(Cl)CCC(C)(Cl)C(=O)CBr` (centres undefined), for which the TGI amounted to 9.06 µM.

Molecule `Cn1c2ccccc2c(=O)c2c(O)cc3c(c21)C1OCC(C)(O)C1O3` (centres undefined) had a TGI of over 100 µM.

`COC(=O)[C@@H]1CO[C@H](C(C)(C)C)N1C(=O)N1C=CC(=O)C[C@H]1C` yielded a TGI of over 100 µM.

With `NCCOc1cccc(C2(N3CCCCC3)CCCCC2)c1`, the TGI amounted to 34.4 µM.

For the molecule `O=C1CC(O)c2cscc21` (centres undefined), the TGI was over 100 µM.

On to `O=[N+]([O-])c1cccc2nc3ccccc3c(NCCCCCNc3c4ccccc4nc4cccc([N+](=O)[O-])c34)c12`, for which the TGI worked out at 0.0346 µM.

For `COc1cc([C@@H]2c3cc4c(cc3[C@@H](Nc3ccc(NC(=O)c5cc([N+](=O)[O-])cn5C)cc3)[C@H]3COC(=O)[C@H]23)OCO4)cc(OC)c1O`, the TGI was > 100 µM and 10 µM.

The subject of a further assay is RPMI-8226 leukemia. The experiment in a line: NCI tumour cell line growth inhibition, 48 h.
For `COC1(OC)CCc2c(sc3ncnc(Nc4cccc(Br)c4)c23)C1`, the TGI turned out to be 59.5 µM.

The molecule `C=CCC(CCC(C)=O)(C(=O)OCC)C(=O)OCC` returned a TGI of over 100 µM.

`CC(C)C(Cl)CCC(C)(Cl)C(=O)CBr` (centres undefined) had a TGI of 2.52 µM.

On to `Cn1c2ccccc2c(=O)c2c(O)cc3c(c21)C1OCC(C)(O)C1O3` (centres undefined), for which the TGI is over 100 µM.

For `COC(=O)[C@@H]1CO[C@H](C(C)(C)C)N1C(=O)N1C=CC(=O)C[C@H]1C`, the TGI was over 100 µM.

For `NCCOc1cccc(C2(N3CCCCC3)CCCCC2)c1`, the TGI stood at 48.4 µM.

`O=C1CC(O)c2cscc21` (centres undefined) showed a TGI of over 100 µM.

`O=[N+]([O-])c1cccc2nc3ccccc3c(NCCCCCNc3c4ccccc4nc4cccc([N+](=O)[O-])c34)c12`: the TGI came to 0.637 µM.

With `COc1cc([C@@H]2c3cc4c(cc3[C@@H](Nc3ccc(NC(=O)c5cc([N+](=O)[O-])cn5C)cc3)[C@H]3COC(=O)[C@H]23)OCO4)cc(OC)c1O`, the GI50 is under 0.01 µM and the TGI was found to be 0.116 µM.

A further assay deals with SF-268 CNS. The experiment in a line: NCI tumour cell line growth inhibition, 48 h.
In turn, `COC1(OC)CCc2c(sc3ncnc(Nc4cccc(Br)c4)c23)C1` came in with a TGI of over 100 µM.

`C=CCC(CCC(C)=O)(C(=O)OCC)C(=O)OCC`: the TGI is over 100 µM.

In turn, `CC(C)C(Cl)CCC(C)(Cl)C(=O)CBr` (centres undefined) showed a TGI of 56 µM.

`Cn1c2ccccc2c(=O)c2c(O)cc3c(c21)C1OCC(C)(O)C1O3` (centres undefined) returned a TGI of 86.6 µM.

`COC(=O)[C@@H]1CO[C@H](C(C)(C)C)N1C(=O)N1C=CC(=O)C[C@H]1C` yielded a TGI of over 100 µM.

Molecule `NCCOc1cccc(C2(N3CCCCC3)CCCCC2)c1` had a TGI of 86.7 µM.

With `O=C1CC(O)c2cscc21` (centres undefined), the TGI is over 100 µM.

The molecule `COc1cc([C@@H]2c3cc4c(cc3[C@@H](Nc3ccc(NC(=O)c5cc([N+](=O)[O-])cn5C)cc3)[C@H]3COC(=O)[C@H]23)OCO4)cc(OC)c1O` showed a TGI of over 33.5 µM.

The next assay has as its system T-47D breast. The experiment in a line: NCI tumour cell line growth inhibition, 48 h.
`COC1(OC)CCc2c(sc3ncnc(Nc4cccc(Br)c4)c23)C1` yielded a TGI of 65.6 µM.

For the molecule `C=CCC(CCC(C)=O)(C(=O)OCC)C(=O)OCC`, the TGI is over 100 µM.

On to `CC(C)C(Cl)CCC(C)(Cl)C(=O)CBr` (centres undefined), for which the TGI was 6.27 µM.

`Cn1c2ccccc2c(=O)c2c(O)cc3c(c21)C1OCC(C)(O)C1O3` (centres undefined) showed a TGI of over 100 µM.

With `COC(=O)[C@@H]1CO[C@H](C(C)(C)C)N1C(=O)N1C=CC(=O)C[C@H]1C`, the TGI is over 100 µM.

For the molecule `NCCOc1cccc(C2(N3CCCCC3)CCCCC2)c1`, the TGI is over 100 µM.

As to `O=C1CC(O)c2cscc21` (centres undefined), the TGI was over 100 µM.

Consider `O=[N+]([O-])c1cccc2nc3ccccc3c(NCCCCCNc3c4ccccc4nc4cccc([N+](=O)[O-])c34)c12`, for which the GI50 was 0.121 µM; the TGI is 0.837 µM and 2.24 µM.

`COc1cc([C@@H]2c3cc4c(cc3[C@@H](Nc3ccc(NC(=O)c5cc([N+](=O)[O-])cn5C)cc3)[C@H]3COC(=O)[C@H]23)OCO4)cc(OC)c1O`: the GI50 is 0.0115 µM; the TGI was 28.8 µM and > 24.4 µM.

The subject of a further assay is IGROV1 ovarian. The experiment in a line: NCI tumour cell line growth inhibition, 48 h.
In the case of `COC1(OC)CCc2c(sc3ncnc(Nc4cccc(Br)c4)c23)C1`, the TGI was over 100 µM.

The molecule `C=CCC(CCC(C)=O)(C(=O)OCC)C(=O)OCC` yielded a TGI of over 100 µM.

On to `CC(C)C(Cl)CCC(C)(Cl)C(=O)CBr` (centres undefined), for which the TGI was 16.9 µM.

As for `Cn1c2ccccc2c(=O)c2c(O)cc3c(c21)C1OCC(C)(O)C1O3` (centres undefined), the TGI turned out to be 79.7 µM.

Regarding `COC(=O)[C@@H]1CO[C@H](C(C)(C)C)N1C(=O)N1C=CC(=O)C[C@H]1C`, the TGI was over 100 µM.

`O=C1CC(O)c2cscc21` (centres undefined): the TGI was over 100 µM.

For the molecule `O=[N+]([O-])c1cccc2nc3ccccc3c(NCCCCCNc3c4ccccc4nc4cccc([N+](=O)[O-])c34)c12`, the GI50 was 0.127 µM; the TGI is 0.506 µM and 1.2 µM.

The next assay relates to SNB-19 CNS. The experiment in a line: NCI tumour cell line growth inhibition, 48 h.
`COC1(OC)CCc2c(sc3ncnc(Nc4cccc(Br)c4)c23)C1`: the TGI was over 100 µM.

Turning to `C=CCC(CCC(C)=O)(C(=O)OCC)C(=O)OCC`, the TGI is over 100 µM.

With `CC(C)C(Cl)CCC(C)(Cl)C(=O)CBr` (centres undefined), the TGI was over 67.3 µM.

Turning to `Cn1c2ccccc2c(=O)c2c(O)cc3c(c21)C1OCC(C)(O)C1O3` (centres undefined), the TGI is over 100 µM.

`NCCOc1cccc(C2(N3CCCCC3)CCCCC2)c1` gave a TGI of over 100 µM.

With `COc1cc([C@@H]2c3cc4c(cc3[C@@H](Nc3ccc(NC(=O)c5cc([N+](=O)[O-])cn5C)cc3)[C@H]3COC(=O)[C@H]23)OCO4)cc(OC)c1O`, the TGI was over 44.5 µM.
